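Cells were grown in 96-well plates and exposed to each compound for 48 hours at five concentrations; endpoints were interpolated linearly between bracketing concentrations, or set to the highest concentration if not reached. GI50: concentration for 50% inhibition of growth. TGI: concentration producing complete growth inhibition.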
Assays:
Test in all cases: NCI-60 cell line screen, 48 h
[1] = system: HL-60(TB) leukemia
[2] = system: NCI-H460 lung
[3] = system: MOLT-4 leukemia
[4] = system: RXF 393 renal
[5] = system: SK-MEL-5 melanoma
[6] = system: SK-OV-3 ovarian
[7] = system: NCI-H522 lung
[8] = system: UACC-62 melanoma
[9] = system: NCI-H226 lung
[10] = system: A549 NSCLC

Structure (SMILES)	GI50 [1]	TGI [1]	GI50 [2]	TGI [2]	GI50 [3]	TGI [3]	GI50 [4]	TGI [4]	GI50 [5]	TGI [5]	GI50 [6]	TGI [6]	GI50 [7]	TGI [7]	GI50 [8]	TGI [8]	GI50 [9]	TGI [9]	GI50 [10]	TGI [10]
O=C(CN1CCN(C(=O)c2ccco2)CC1)Nc1ccc(Cl)cc1C(=O)c1ccccc1Cl	1.31 µM	2.95 µM	13.9 µM	29 µM	2.14 µM	5.44 µM	3.85 µM	18 µM	5.34 µM	18.6 µM	16.1 µM	76.7 µM	4.16 µM	27.4 µM	8.85 µM	23.4 µM	13.3 µM	44.8 µM	5.61 µM	39.4 µM
CC1C(O)=C(O)c2ccccc2N1O (stereo not drawn)	–	> 100 µM	–	> 100 µM	–	> 100 µM	–	> 100 µM	–	> 100 µM	–	> 100 µM	–	> 100 µM	–	> 100 µM	–	> 100 µM	–	> 100 µM
Cc1cc(C)nc(NS(=O)(=O)c2ccc(NC(=O)COC(=O)c3cccc4c(=O)c5ccccc5[nH]c34)cc2)n1	–	63.9 µM	–	> 100 µM	–	84.8 µM	–	74.5 µM	–	> 100 µM	–	> 100 µM	–	70.9 µM	–	34.3 µM	–	> 100 µM	–	> 100 µM
CO/C(=C1/NC(=O)C(Cc2ccc(O)c(Br)c2)N(C)C(=O)C(C)NC(=O)CCC/C=C(\C)CCC(C)OC1=O)c1ccccc1 (stereo not drawn)	0.033 µM	0.999 µM	–	3.49 µM	0.119 µM	> 100 µM	0.0347 µM	16.2 µM	0.0327 µM	0.387 µM	0.0245 µM	0.0662 µM	0.0281 µM	0.438 µM	0.0753 µM	20.4 µM	0.365 µM	3.17 µM	< 0.0141 µM	0.471 µM
c1ccc(CC(Nc2cccnc2)c2ccccc2)cc1 (stereo not drawn)	–	50.1 µM	–	52.9 µM	–	47.7 µM	–	51.2 µM	–	29.4 µM	–	> 100 µM	–	60.4 µM	–	36.9 µM	–	51.4 µM	–	> 100 µM
CC1=CC[C@@H](C(C)(C)O)C[C@@H]1O	–	> 5000 µM	–	> 5000 µM	–	> 5000 µM	–	> 5000 µM	–	> 5000 µM	–	> 5000 µM	–	> 5000 µM	–	> 5000 µM	–	> 5000 µM	–	> 5000 µM
CC1=C(C(=O)Nc2ccc(C)cc2)C(c2cccc([N+](=O)[O-])c2)C(C(=O)Nc2ccc(C)cc2)=C(C)N1	–	39.4 µM	–	60.8 µM	–	38.5 µM	–	63.2 µM	–	44.3 µM	–	> 100 µM	–	93.8 µM	–	30.4 µM	–	> 100 µM	–	> 100 µM
CC[As](CC)SCC1OC(OC(C)=O)C(OC(C)=O)C(OC(C)=O)C1OC(C)=O (stereo not drawn)	–	19.2 µM	–	31.3 µM	–	48.2 µM	–	9.69 µM	–	28.4 µM	–	29.3 µM	–	3.2 µM	–	27.2 µM	–	28.9 µM	–	39.6 µM
CC[C@@H](C)/C=C(C)/C=C/C(=O)c1c(O)c(-c2ccc(O)cc2)cn(OC2CC(=O)CCC(C)OC(=O)CC2O)c1=O (stereo partly drawn)	0.212 µM	2.86 µM	0.267 µM	2.99 µM	0.225 µM	12.1 µM	0.386 µM	17.8 µM	0.271 µM	0.978 µM	0.463 µM	35.6 µM	0.419 µM	11.5 µM	0.279 µM	1.15 µM	0.285 µM	3.05 µM	1.74 µM	15.6 µM
COC(=O)C(C(=O)C(=O)Nc1ccccc1C)c1nc2ccc([N+](=O)[O-])cc2[nH]c1=O (stereo not drawn)	–	> 100 µM	–	> 100 µM	–	> 100 µM	–	> 100 µM	–	> 100 µM	–	> 100 µM	–	> 100 µM	–	> 100 µM	–	> 100 µM	–	> 100 µM
COc1c(B(O)O)cccc1-c1nc2c(F)cc3n[nH]c(C)c3c2c2c1CCCC2	0.5 µM	> 12.9 µM	1.28 µM	> 50 µM	0.272 µM	> 50 µM	0.044 µM	0.924 µM	0.932 µM	2.96 µM	0.666 µM	4.71 µM	1.11 µM	8.81 µM	1.55 µM	8.39 µM	0.892 µM	> 14.2 µM	1.13 µM	> 50 µM
O=C1OCC2=C1C(c1cccc(Cl)c1)c1cc3c(cc1N2CCO)CCC3 (stereo not drawn)	0.0318 µM	0.353 µM	0.038 µM	4.12 µM	0.192 µM	20.3 µM	0.0238 µM	–	0.0291 µM	0.28 µM	0.0414 µM	7.8 µM	0.0203 µM	0.0603 µM	0.0427 µM	15.3 µM	0.0527 µM	0.912 µM	0.0477 µM	6.45 µM
O=C(N/N=C/c1ccncc1)c1ccc(F)cc1	> 40 µM	> 40 µM	> 40 µM	> 40 µM	> 40 µM	> 40 µM	> 40 µM	> 40 µM	> 40 µM	> 40 µM	> 40 µM	> 40 µM	> 40 µM	> 40 µM	> 40 µM	> 40 µM	> 40 µM	> 40 µM	> 40 µM	> 40 µM
CC[C@@]1(O)C(=O)OCc2c1cc1n(c2=O)Cc2c-1nc1cc(F)c(C)c3c1c2[C@@H](NC(=O)CO)CC3	< 0.01 µM	0.781 µM	< 0.01 µM	1.27 µM	< 0.01 µM	> 100 µM	< 0.01 µM	0.0731 µM	< 0.0109 µM	0.119 µM	0.0173 µM	4.96 µM	< 0.01 µM	0.328 µM	< 0.01 µM	0.117 µM	< 0.0128 µM	0.117 µM	0.0503 µM	7.51 µM
CCOc1ccc2c(c1)C(=O)c1c-2n(CCCN=[N+]=[N-])c(=O)c2cc([N+](=O)[O-])ccc12	28.5 µM	> 100 µM	0.284 µM	10.7 µM	1.96 µM	20.8 µM	28 µM	> 100 µM	1.48 µM	4.84 µM	5.9 µM	36.2 µM	3.58 µM	25.8 µM	2.89 µM	24.1 µM	2.24 µM	9.92 µM	10.2 µM	> 100 µM
O=C(CC1(O)C(=O)Nc2ccccc21)c1ccccc1O (stereo not drawn)	–	> 100 µM	–	> 100 µM	–	> 100 µM	–	> 100 µM	–	> 100 µM	–	> 100 µM	–	> 100 µM	–	> 100 µM	–	> 100 µM	–	> 100 µM

Reference: PubChem BioAssay (NCI)
